Experimental findings from patent US10160732B2, “MIF inhibitors” (MIFCARE, priority 2014, dated 2018) are described below.

The target of the experiment is T1, recombinant human MIF (Homo sapiens, UniProt P14174).
T1 construct: purchased RayBiotech
T1 sequence (P14174 2-115 limits assumed): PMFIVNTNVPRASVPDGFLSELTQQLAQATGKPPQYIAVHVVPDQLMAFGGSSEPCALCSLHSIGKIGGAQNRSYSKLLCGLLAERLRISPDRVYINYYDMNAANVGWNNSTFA
As to the kind of experiment: MIF tautomerase assay using 4-hydroxyphenylpyruvate (4-HPP). As to conditions: compounds tested at 1 nM; 300 ng/mL rhMIF; 4-HPP substrate; compared to positive control with recombinant human MIF alone. Type of experiment: biochemical. The protocol: Tautomerase activity was assessed using 4-hydroxyphenylpyruvate (4-HPP) as substrate. 4-HPP was dissolved in 50 mM ammonium acetate at pH 6.0, allowed to equilibrate to room temperature and stored at −20° C. 300 ng/mL of recombinant human MIF (rhMIF; RayBiotech, Le Perray en Yvelines, France) and tested compounds were pre-incubated at room temperature for 15 min. Tautomerase activity was assessed at room temperature, by adding 4-HHP to a 96-well plate containing 0.435 M boric acid at pH 6.6 and rhMIF with or without (positive control) tested compounds (1 nM), and by measuring the increase in absorbance at 320 nm over 10-360 s using the 2103 EnVision™ Multilabel Plate Readers (PerkinElmer, Villebon-sur-Yvette, France). Compounds were tested at 1 nM. The assay was replicated 3 times independently.
Compounds 38, 39 and 41 of the present invention were tested and compared to their respective “C═O” isosteres 38-O, 39-O and 41-O. Results are also compared to prototypical MIF inhibitor ISO-1.
Results are presented in table 2 below and represent the percentage of MIF tautomerase activity inhibition as compared to the positive control with recombinant human MIF alone.

On to `Cc1ccc2oc(=O)n(Cc3ccccc3)c2c1` [Compound 39-O], for which the inhibition (as a rule, the change of the read-out against control, counted positive when it falls) at 0.001 µM worked out at 12%.
To `COc1ccccc1Cn1c(=O)oc2ccc(C)cc21` [Compound 41-O] belongs 31%.
